Source: patent US20030087906A1, “NITROGEN SUBSTITUTED BIARYL PURINE DERIVATIVES AS POTENT ANTIPROLIFERATIVE AGENTS” (priority 2001, published 2003)
Values joined by “and” are separate entries in the source; they are usually repeats but may differ in a detail not shown here. Equal entries are not always repeated.

Experiments:
[1] = target: T1, CyclinB/cdk1 (Homo sapiens, UniProt P06493); experiment: CyclinB/cdk1 protein kinase assay (histone H1 phosphorylation); assay type: biochemical; conditions: complex immunopurified from HeLa cells; 15 μM ATP; replicate experiments
T1 construct: Monoclonal antibody against cyclinB (GNS1) is added to the supernatant; endogenous in cells
Experimental: HeLa cells are blocked at the G1/S border by culturing in the presence of 2 mM thymidine for 20 h. The cells are then rinsed 3×in phosphate buffered saline and resuspended in regular medium. After 4 h of culture, the mitotic blocker, nocodazole is added to a final concentration of 75 ng/ml. […] The lysate is then clarified by centrifugation at 10,000×g for 10 min. The supernatant is collected and diluted 1:5 with Lysis Buffer. Monoclonal antibody against cyclinB (GNS1) is added to the supernatant to a final concentration of 5 μg/ml and shaken at 4° C. for 2 h. The immune complexes are then collected by the addition of 200 μl of protein agarose beads for 1 h. The beads are washed 4×in lysis buffer and 1×in kinase assay buffer.
Duplicate assays were performed at each concentration.

[2] = target: CyclinA/cdk2 (Homo sapiens, UniProt P24941); experiment: CyclinA/cdk2 protein kinase assay (histone H1 phosphorylation); conditions: IC50 CyclinA/cdk2, complex immunopurified from HeLa cells; 15 μM ATP; replicate experiments
[3] = target: CyclinE/cdk2 (Homo sapiens, UniProt P24941); experiment: CyclinE/cdk2 protein kinase assay (histone H1 phosphorylation); conditions: IC50 CyclinE/cdk2, complex immunopurified from HeLa cells; 15 μM ATP; replicate experiments
[4] = system: Tumor Cells in Hollow Fibers; experiment: NCI Hollow Fiber Assay (in vivo evaluation)
[5] = MTD (NCI in vivo evaluation, Table 8); conditions: mouse
[6] = system: HeLa S-3 cells; experiment: Inhibition of cell growth of HeLa cells (SRB); assay type: cell-based, human; conditions: 2 days of treatment, replicate experiments
Experimental: Growth inhibition (GI50) values were measured with HeLa S-3 cells selected for growth on plastic. […] One day later, a control plate was fixed by addition of TCA to 5%. After five rinses with tap water the plate was air dried and stored at 4° C. Test compounds were added to the remaining plates at 10-fold dilutions between 0.01 and 100 μM. Two days later all plates were fixed as described above. Cells were then stained by the addition of 100 μl per well of 0.4% sulforhodamine B (SRB) in 1% acetic acid for 30 min at 4° C. Wells were then quickly rinsed 5×with acetic acid (1%) and allowed to air dry. The SRB was then solubilized by the addition of 100 μl per well of unbuffered 10 mM Tris base. Dye was quantified by measuring absorbance at 490 nm on a Molecular Devices kinetic microplate reader. Growth at each inhibitor concentration relative to the untreated control was calculated according to the following equation: percent growth=100×(T−To)/(C−To), where T was the average optical density (OD) of the test wells after 2 days of treatment, To was the average OD of the wells in the control plate on day 0 and C was the average OD of untreated wells. Plots of percent growth versus inhibitor concentration were used to determine the GI50.

[7] = system: BT-549; experiment: NCI 60-cell line growth inhibition assay; assay type: cell-based; conditions: Homo sapiens; Breast, BT-549
[8] = system: MCF7; experiment: NCI 60-cell line growth inhibition assay; assay type: cell-based; conditions: Homo sapiens; Breast, MCF7
[9] = system: MDA-MB-435; experiment: NCI 60-cell line growth inhibition assay; assay type: cell-based; conditions: Homo sapiens; Breast, MDA-MB-435
[10] = system: NCI/ADR-RES; experiment: NCI 60-cell line growth inhibition assay; assay type: cell-based; conditions: Homo sapiens; Breast, NCI/ADR-RES
[11] = system: T-47D; experiment: NCI 60-cell line growth inhibition assay; assay type: cell-based; conditions: Homo sapiens, T47D; Breast, T-47D
[12] = system: SF-268; experiment: NCI 60-cell line growth inhibition assay; assay type: cell-based; conditions: Homo sapiens; CNS, SF-268
[13] = system: SF-295; experiment: NCI 60-cell line growth inhibition assay; assay type: cell-based; conditions: Homo sapiens; CNS, SF-295
[14] = system: SF-539; experiment: NCI 60-cell line growth inhibition assay; assay type: cell-based; conditions: Homo sapiens; CNS, SF-539
[15] = system: SNB-19; experiment: NCI 60-cell line growth inhibition assay; assay type: cell-based; conditions: Homo sapiens; CNS, SNB-19
[16] = system: U251; experiment: NCI 60-cell line growth inhibition assay; assay type: cell-based; conditions: Homo sapiens, U-251; CNS, U251
[17] = system: COLO 205; experiment: NCI 60-cell line growth inhibition assay; assay type: cell-based; conditions: Homo sapiens; Colon, COLO 205
[18] = system: HCC-2998; experiment: NCI 60-cell line growth inhibition assay; assay type: cell-based; conditions: Homo sapiens; Colon, HCC-2998
[19] = system: HCT-116; experiment: NCI 60-cell line growth inhibition assay; assay type: cell-based; conditions: Homo sapiens; Colon, HCT-116
[20] = system: HCT-15; experiment: NCI 60-cell line growth inhibition assay; assay type: cell-based; conditions: Homo sapiens; Colon, HCT-15
[21] = system: HT29; experiment: NCI 60-cell line growth inhibition assay; assay type: cell-based; conditions: Homo sapiens, HT-29; Colon, HT29
[22] = system: KM12; experiment: NCI 60-cell line growth inhibition assay; assay type: cell-based; conditions: Homo sapiens; Colon, KM12
[23] = system: SW-620; experiment: NCI 60-cell line growth inhibition assay; assay type: cell-based; conditions: Homo sapiens; Colon, SW-620
[24] = system: CCRF-CEM; experiment: NCI 60-cell line growth inhibition assay; assay type: cell-based; conditions: Homo sapiens; Leukemia, CCRF-CEM
[25] = system: HL-60(TB); experiment: NCI 60-cell line growth inhibition assay; assay type: cell-based; conditions: Homo sapiens; Leukemia, HL-60(TB)
[26] = system: K-562; experiment: NCI 60-cell line growth inhibition assay; assay type: cell-based; conditions: Homo sapiens, K562; Leukemia, K-562
[27] = system: MOLT-4; experiment: NCI 60-cell line growth inhibition assay; assay type: cell-based; conditions: Homo sapiens; Leukemia, MOLT-4
[28] = system: RPMI-8226; experiment: NCI 60-cell line growth inhibition assay; assay type: cell-based; conditions: Homo sapiens; Leukemia, RPMI-8226
[29] = system: SR; experiment: NCI 60-cell line growth inhibition assay; assay type: cell-based; conditions: Homo sapiens; Leukemia, SR
[30] = system: LOX IMVI; experiment: NCI 60-cell line growth inhibition assay; assay type: cell-based; conditions: Homo sapiens; Melanoma, LOX IMVI
[31] = system: M14; experiment: NCI 60-cell line growth inhibition assay; assay type: cell-based; conditions: Homo sapiens; Melanoma, M14
[32] = system: MALME-3M; experiment: NCI 60-cell line growth inhibition assay; assay type: cell-based; conditions: Homo sapiens; Melanoma, MALME-3M
[33] = system: SK-MEL-2; experiment: NCI 60-cell line growth inhibition assay; assay type: cell-based; conditions: Homo sapiens; Melanoma, SK-MEL-2
[34] = system: SK-MEL-28; experiment: NCI 60-cell line growth inhibition assay; assay type: cell-based; conditions: Homo sapiens; Melanoma, SK-MEL-28
[35] = system: SK-MEL-5; experiment: NCI 60-cell line growth inhibition assay; assay type: cell-based; conditions: Homo sapiens; Melanoma, SK-MEL-5
[36] = system: UACC-257; experiment: NCI 60-cell line growth inhibition assay; assay type: cell-based; conditions: Homo sapiens; Melanoma, UACC-257
[37] = system: UACC-62; experiment: NCI 60-cell line growth inhibition assay; assay type: cell-based; conditions: Homo sapiens; Melanoma, UACC-62
[38] = system: A549/ATCC; experiment: NCI 60-cell line growth inhibition assay; assay type: cell-based; conditions: Homo sapiens; Non-Small Cell Lung, A549/ATCC
[39] = system: EKVX; experiment: NCI 60-cell line growth inhibition assay; assay type: cell-based; conditions: Homo sapiens; Non-Small Cell Lung, EKVX
[40] = system: HOP-62; experiment: NCI 60-cell line growth inhibition assay; assay type: cell-based; conditions: Homo sapiens; Non-Small Cell Lung, HOP-62
[41] = system: NCI-H23; experiment: NCI 60-cell line growth inhibition assay; assay type: cell-based; conditions: Homo sapiens; Non-Small Cell Lung, NCI-H23
[42] = system: NCI-H322M; experiment: NCI 60-cell line growth inhibition assay; assay type: cell-based; conditions: Homo sapiens; Non-Small Cell Lung, NCI-H322M
[43] = system: NCI-H460; experiment: NCI 60-cell line growth inhibition assay; assay type: cell-based; conditions: Homo sapiens; Non-Small Cell Lung, NCI-H460
[44] = system: NCI-H522; experiment: NCI 60-cell line growth inhibition assay; assay type: cell-based; conditions: Homo sapiens; Non-Small Cell Lung, NCI-H522
[45] = system: IGROV1; experiment: NCI 60-cell line growth inhibition assay; assay type: cell-based; conditions: Homo sapiens, IGROV-1; Ovarian, IGROV1
[46] = system: OVCAR-3; experiment: NCI 60-cell line growth inhibition assay; assay type: cell-based; conditions: Homo sapiens; Ovarian, OVCAR-3
[47] = system: OVCAR-4; experiment: NCI 60-cell line growth inhibition assay; assay type: cell-based; conditions: Homo sapiens; Ovarian, OVCAR-4
[48] = system: OVCAR-5; experiment: NCI 60-cell line growth inhibition assay; assay type: cell-based; conditions: Homo sapiens; Ovarian, OVCAR-5
[49] = system: OVCAR-8; experiment: NCI 60-cell line growth inhibition assay; assay type: cell-based; conditions: Homo sapiens; Ovarian, OVCAR-8
[50] = system: SK-OV-3; experiment: NCI 60-cell line growth inhibition assay; assay type: cell-based; conditions: Homo sapiens; Ovarian, SK-OV-3
[51] = system: DU-145; experiment: NCI 60-cell line growth inhibition assay; assay type: cell-based; conditions: Homo sapiens; Prostate, DU-145
[52] = system: PC-3; experiment: NCI 60-cell line growth inhibition assay; assay type: cell-based; conditions: Homo sapiens; Prostate, PC-3
[53] = system: 786-0; experiment: NCI 60-cell line growth inhibition assay; assay type: cell-based; conditions: Homo sapiens; Renal, 786-0
[54] = system: ACHN; experiment: NCI 60-cell line growth inhibition assay; assay type: cell-based; conditions: Homo sapiens; Renal, ACHN
[55] = system: CAKI-1; experiment: NCI 60-cell line growth inhibition assay; assay type: cell-based; conditions: Homo sapiens; Renal, CAKI-1
[56] = system: TK-10; experiment: NCI 60-cell line growth inhibition assay; assay type: cell-based; conditions: Homo sapiens; Renal, TK-10
[57] = system: UO-31; experiment: NCI 60-cell line growth inhibition assay; assay type: cell-based; conditions: Homo sapiens; Renal, UO-31

T1 sequence (P06493 whole entry): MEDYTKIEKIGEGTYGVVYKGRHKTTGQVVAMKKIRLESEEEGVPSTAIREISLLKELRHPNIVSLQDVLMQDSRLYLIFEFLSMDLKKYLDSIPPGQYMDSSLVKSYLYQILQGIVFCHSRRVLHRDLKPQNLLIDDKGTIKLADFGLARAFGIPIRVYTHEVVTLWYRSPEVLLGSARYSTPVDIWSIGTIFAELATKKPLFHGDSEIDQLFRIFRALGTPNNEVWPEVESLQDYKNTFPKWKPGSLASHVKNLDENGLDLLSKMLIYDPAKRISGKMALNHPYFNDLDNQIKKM
T1 sequence (P14635 whole entry partner): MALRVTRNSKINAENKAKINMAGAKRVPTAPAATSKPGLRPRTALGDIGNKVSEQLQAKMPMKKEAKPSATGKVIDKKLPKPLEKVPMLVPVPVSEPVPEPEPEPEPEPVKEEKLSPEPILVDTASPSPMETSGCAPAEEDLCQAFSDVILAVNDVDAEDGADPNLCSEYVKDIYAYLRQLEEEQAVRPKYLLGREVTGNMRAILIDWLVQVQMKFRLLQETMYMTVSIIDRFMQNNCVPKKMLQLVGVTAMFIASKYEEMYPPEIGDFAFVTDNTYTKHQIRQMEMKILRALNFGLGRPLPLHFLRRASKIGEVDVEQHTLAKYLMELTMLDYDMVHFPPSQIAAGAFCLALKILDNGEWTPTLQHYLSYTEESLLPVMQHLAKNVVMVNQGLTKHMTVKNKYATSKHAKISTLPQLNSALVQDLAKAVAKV

## CC(C)n1cnc2c(NCc3ccc(-c4ccccc4)cc3)nc(N[C@H]3CC[C@H](O)CC3)nc21 [Compound 77]
[1]
  IC50: > 10 µM
other
  melting point: 196 to 200 °C
[2]
  IC50: > 10 µM
[3]
  IC50: 4 µM and 14 µM

## CC(=O)N[C@H]1CC[C@H](Nc2nc(NCc3ccc(-c4ccsc4)cc3)c3ncn(C(C)C)c3n2)CC1 [Compound 113]
[4]
  Cell Types Killed: OVCAR-3
[4]; IP fibers
  IP Score: 18
[4]; SC fibers
  SC score: 4
[5]
  MTD: 200 mg/kg
[2]
  IC50: 0.4 µM
[3]
  IC50: 0.3 µM

## CC(=O)N[C@H]1CC[C@H](Nc2nc(NCc3ccc(-c4ccccc4)cc3)c3ncn(C(C)C)c3n2)CC1 [Compound 76]
[1]
  IC50: 6 µM
other
  melting point: 224 to 225 °C
[2]
  IC50: 12 µM and 11 µM and 3 µM
[3]
  IC50: 3 µM and 5 µM and 2 µM

## CC(C)n1cnc2c(NCc3ccc(-c4ccsc4)nc3)nc(N[C@H]3CC[C@H](N)CC3)nc21 [Compound 123]
[6]
  GI50: < 0.001 µM and 0.0001 µM
other
  melting point: 78 to 81 °C
[2]
  IC50: 0.2 µM
[3]
  IC50: 0.04 µM

## COC(=O)c1ccc(-c2ccc(CNc3nc(N[C@H]4CC[C@H](N)CC4)nc4c3ncn4C(C)C)cc2)cc1 [Compound 115]
[6]; Homo sapiens, HeLa S3, 48 h
  GI50: 3 µM
other
  melting point: 194 to 197 °C
[2]
  IC50: 3 µM
[3]
  IC50: 0.4 µM

## C=Cc1ccc(-c2ccc(CNc3nc(N[C@H](CC)CO)nc4c3ncn4C(C)C)cc2)cc1 [Compound 33]
[7]
  GI50: 51.3 µM
[8]
  GI50: 5.2 µM
[9]
  GI50: 4.9 µM
[10]
  GI50: 6.3 µM
[11]
  GI50: 3.9 µM
[12]
  GI50: 6.3 µM
[13]
  GI50: 7.8 µM
[14]
  GI50: 89.1 µM
[15]
  GI50: 38 µM
[16]
  GI50: 3.7 µM
[17]
  GI50: 7.8 µM
[18]
  GI50: > 1000 µM
[19]
  GI50: 6.2 µM
[20]
  GI50: 8.9 µM
[21]
  GI50: 8.9 µM
[22]
  GI50: 4.1 µM
[23]
  GI50: 2.9 µM
[24]
  GI50: 4.6 µM
[25]
  GI50: 3.2 µM
[26]
  GI50: 3.1 µM
[27]
  GI50: 3.8 µM
[28]
  GI50: 1.5 µM
[29]
  GI50: 4.5 µM
[30]
  GI50: 16.6 µM
[31]
  GI50: 7.8 µM
[32]
  GI50: 11.7 µM
[33]
  GI50: > 1000 µM
[34]
  GI50: 5.9 µM
[35]
  GI50: 16.2 µM
[36]
  GI50: 75.9 µM
[37]
  GI50: 8.3 µM
[38]
  GI50: 4.6 µM
[39]
  GI50: 6.9 µM
[40]
  GI50: > 1000 µM
[41]
  GI50: 26.3 µM
[42]
  GI50: 38.9 µM
[43]
  GI50: 25.7 µM
[44]
  GI50: 4.2 µM
[45]
  GI50: 10 µM
[46]
  GI50: > 1000 µM
[47]
  GI50: 31.6 µM
[48]
  GI50: > 1000 µM
[49]
  GI50: 6.6 µM
[50]
  GI50: > 1000 µM
[51]
  GI50: 17.8 µM
[52]
  GI50: > 1000 µM
[53]
  GI50: 18.6 µM
[54]
  GI50: 5.2 µM
[55]
  GI50: 4.4 µM
[56]
  GI50: 8.3 µM
[57]
  GI50: 8.1 µM
